According to ChEMBL document CHEMBL1201862, “PubChem BioAssay data set” (2004):
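Five concentrations, 48 hours, 96-well plates. The concentration for 50% growth inhibition is given as GI50.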 The source made the active and inactive calls. Cut-off read from the data, not from the text of the source: active = GI50 up to about 1.1 µM and inactive = higher.

What was measured:
Test in all cases: NCI tumour cell line growth inhibition, 48 h
HOP-92 = tested on: HOP-92
HCT-116 = tested on: HCT-116
K562 = tested on: K562
OVCAR-8 = tested on: OVCAR-8
KM-20L2 = tested on: KM-20L2
A498 = tested on: A498
HOP-62 = tested on: HOP-62
SF-295 = tested on: SF-295
CAKI-1 = tested on: CAKI-1
KM12 = tested on: KM12
UACC-62 = tested on: UACC-62
HT-29 = tested on: HT-29
U-251 = tested on: U-251
COLO 205 = tested on: COLO 205
Malme-3M = tested on: Malme-3M
SF-268 = tested on: SF-268
RPMI-8226 = tested on: RPMI-8226

Measured: GI50

O=[N+]([O-])c1cccc(/C=N\NS(=O)(=O)c2ccc(Cl)cc2)c1O
inactive: HOP-92 42.6 µM | HCT-116 50.4 µM | K562 60.1 µM | OVCAR-8 79.4 µM | KM-20L2 > 100 µM | A498 > 100 µM | HOP-62 > 100 µM | SF-295 > 100 µM | CAKI-1 > 100 µM | KM12 > 100 µM | UACC-62 49.7 µM | HT-29 > 100 µM | U-251 55.5 µM | COLO 205 69.8 µM | Malme-3M > 100 µM | SF-268 > 100 µM | RPMI-8226 55.5 µM

NNC(=O)CCC(=O)Nc1ccc(Cl)cc1Cl
inactive: HOP-92 > 100 µM | HCT-116 > 100 µM | K562 19.1 µM | OVCAR-8 > 100 µM | KM-20L2 > 100 µM | A498 > 100 µM | HOP-62 > 100 µM | SF-295 > 100 µM | CAKI-1 > 100 µM | KM12 > 100 µM | UACC-62 28.8 µM | HT-29 > 100 µM | U-251 > 100 µM | COLO 205 > 100 µM | Malme-3M > 100 µM | SF-268 > 100 µM | RPMI-8226 80.5 µM

O=C1CCC(=O)c2cc(Br)ccc2N1
inactive: HOP-92 > 100 µM | HCT-116 > 40.8 µM | K562 > 100 µM | OVCAR-8 > 100 µM | KM-20L2 > 100 µM | A498 > 100 µM | HOP-62 > 100 µM | SF-295 > 100 µM | CAKI-1 > 100 µM | KM12 > 100 µM | UACC-62 > 100 µM | HT-29 > 100 µM | U-251 99.3 µM | COLO 205 > 100 µM | Malme-3M > 100 µM | SF-268 > 100 µM | RPMI-8226 > 67.5 µM

CC(=O)Nc1ccc(/C=C/C(=O)c2sc(-c3cccnc3)nc2C)cc1
inactive: HOP-92 > 100 µM | K562 > 100 µM | OVCAR-8 > 100 µM | KM-20L2 > 100 µM | A498 > 100 µM | HOP-62 > 100 µM | SF-295 > 100 µM | CAKI-1 > 100 µM | KM12 > 100 µM | UACC-62 > 100 µM | HT-29 > 100 µM | U-251 > 100 µM | COLO 205 > 100 µM | Malme-3M > 100 µM | SF-268 > 100 µM | RPMI-8226 > 100 µM

CCCCCCCCCOC(=S)NC
inactive: HOP-92 18.2 µM | K562 21.8 µM | OVCAR-8 18.8 µM | KM-20L2 18 µM | A498 20.1 µM | SF-295 27.8 µM | CAKI-1 20.7 µM | KM12 25.6 µM | UACC-62 23.2 µM | HT-29 20.6 µM | U-251 16.9 µM | COLO 205 22.8 µM | Malme-3M 20.6 µM | SF-268 19.5 µM | RPMI-8226 20 µM

O=C(c1ccccc1)[C@H]1Nc2cnccc2C2c3ccccc3CC21 (some centres undefined)
inactive: HOP-92 13.1 µM | HCT-116 3.81 µM | K562 3.14 µM | OVCAR-8 8.24 µM | KM-20L2 21.2 µM | A498 25.9 µM | HOP-62 25 µM | SF-295 18.2 µM | CAKI-1 24.9 µM | KM12 42.1 µM | UACC-62 16.9 µM | HT-29 19.4 µM | U-251 11.3 µM | COLO 205 19.8 µM | Malme-3M 12.9 µM | SF-268 7.35 µM | RPMI-8226 7 µM

CC1CCC2c3c([nH]c4ccccc34)C3C(=O)N(c4ccccc4)C(=O)C3C2C1 (centres undefined)
inactive: HOP-92 11.1 µM | HCT-116 80.2 µM | K562 46.8 µM | OVCAR-8 43.5 µM | KM-20L2 > 250 µM | A498 43.8 µM | HOP-62 32.7 µM | SF-295 15 µM | CAKI-1 > 250 µM | KM12 > 250 µM | UACC-62 30.1 µM | HT-29 > 250 µM | U-251 64.9 µM | COLO 205 > 100 µM | Malme-3M 54.3 µM | SF-268 22.9 µM | RPMI-8226 > 100 µM

C/C(=N\N(C)C)c1sc(-n2nc(-c3ccccc3)cc2-c2ccccc2)nc1C
inactive: HOP-92 61.9 µM | HCT-116 > 100 µM | K562 > 100 µM | OVCAR-8 > 100 µM | KM-20L2 > 100 µM | A498 > 100 µM | HOP-62 > 100 µM | SF-295 51.2 µM | CAKI-1 > 100 µM | KM12 > 100 µM | UACC-62 > 100 µM | HT-29 > 100 µM | U-251 91.6 µM | COLO 205 > 100 µM | Malme-3M > 100 µM | SF-268 > 100 µM

O=CC1CCCc2ccccc21 (centres undefined)
inactive: HOP-92 > 100 µM | HCT-116 > 50.1 µM | K562 > 60 µM | OVCAR-8 > 100 µM | KM-20L2 > 100 µM | A498 > 100 µM | HOP-62 > 100 µM | SF-295 > 100 µM | CAKI-1 > 100 µM | KM12 > 100 µM | UACC-62 > 100 µM | HT-29 > 100 µM | U-251 > 41.5 µM | COLO 205 > 42.7 µM | Malme-3M > 100 µM | SF-268 > 31.6 µM | RPMI-8226 > 43.1 µM
